Legend:
[1] = tested on: barley; assay: Test B preemergence/postemergence greenhouse plant response rating 0 to 10; assay type: in vivo, Hordeum vulgare; conditions: for Plant response rating, Barley: 0 to 10 scale
Outline: (§1)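 Test chemicals were sprayed onto freshly planted seed and, concurrently, onto young plants between the one and four leaf stage. After a twelve- to sixteen-day greenhouse period, each species was visually compared with untreated controls.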

[2] = tested on: bedstraw; assay: as above; assay type: in vivo, Galium aparine; conditions: POSTEMERGENCE
Outline: as §1

[3] = tested on: chickweed; assay: as above; assay type: in vivo, Stellaria media; conditions: Rate 10 g/ha, 0 to 10 scale
Outline: as §1

[4] = tested on: cocklebur; assay: as above; assay type: in vivo, Xanthium pensylvanicum; conditions: for Plant response rating, Cocklebur: 0 to 10 scale
Outline: as §1

[5] = tested on: morningglory; assay: as above; assay type: in vivo, Ipomoea hederacea; conditions: 0 to 10 scale
Outline: as §1

[6] = tested on: sorghum; assay: as above; assay type: in vivo, Sorghum bicolor; conditions: 0 to 10 scale
Outline: as §1

[7] = tested on: soybean; assay: as above; assay type: in vivo, Glycine max; conditions: 0 to 10 scale
Outline: as §1

[8] = tested on: sugar beet; assay: as above; assay type: in vivo, Beta vulgaris; conditions: 0 to 10 scale
Outline: as §1

[9] = tested on: velvetleaf; assay: as above; assay type: in vivo, Abutilon theophrasti; conditions: 0 to 10 scale
Outline: as §1

[10] = tested on: wild buckwheat; assay: as above; assay type: in vivo, Polygonum convolvulus; conditions: 0 to 10 scale
Outline: as §1

[11] = tested on: barley; assay: Test C preemergence/postemergence greenhouse plant response rating 0 to 100; assay type: in vivo, Hordeum vulgare; conditions: POSTEMERGENCE
Outline: (§2)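 Compounds in non-phytotoxic solvent went onto sandy loam before emergence (seeded one day earlier) or onto plants at the one-to-four leaf stage. Duck salad was treated via flood water (~2.5 cm, maintained) over silt loam.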

[12] = tested on: blackgrass; assay: as above; assay type: in vivo, Alopecurus myosuroides; conditions: POSTEMERGENCE
Outline: as §2

[13] = tested on: chickweed; assay: as above; assay type: in vivo, Stellaria media; conditions: POSTEMERGENCE
Outline: as §2

[14] = tested on: pigweed; assay: as above; assay type: in vivo, Amaranthusretroflexus; conditions: POSTEMERGENCE
Outline: as §2

[15] = tested on: rape; assay: as above; assay type: in vivo, Brassica napus; conditions: POSTEMERGENCE
Outline: as §2

[16] = tested on: ryegrass; assay: as above; assay type: in vivo, Lolium multiflorum; conditions: POSTEMERGENCE
Outline: as §2

[17] = tested on: soybean; assay: as above; assay type: in vivo, Glycine max; conditions: POSTEMERGENCE
Outline: as §2

[18] = tested on: umbrella sedge; assay: Test C flood test plant response rating 0 to 100; assay type: in vivo, Cyperus difformis
Outline: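 Compounds in non-phytotoxic solvent applied preemergence to sandy loam one day after planting, postemergence at the 1–4 leaf stage, or to ~2.5 cm floodwater over silt loam.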

With `CCCN1C(=O)COc2cc(F)c(-c3nn4c(c3Cl)CCCC4)cc21` [Compound 32] the “Plant response rating, Barley” value ([1]; POSTEMERGENCE, Rate 10 g/ha) was 5, the “Plant response rating (0 to 10 scale), Barley” value ([1]; POSTEMERGENCE, Rate 50 g/ha) was 5 and the “Plant response rating, Barley” value ([1]; PREEMERGENCE, Rate 10 g/ha) was 0. For the same compound, the “Plant response rating, Barley” value ([1]; PREEMERGENCE, Rate 50 g/ha) was 0, the “Plant response rating, Bedstraw” value ([2]; Rate 10 g/ha, 0 to 10 scale) was 8 and the “Plant response rating (0 to 10 scale), Bedstraw” value ([2]; Rate 50 g/ha) was 10. The “Plant response rating, Chickweed” value ([3]; POSTEMERGENCE) was 10, the “Plant response rating, Chickweed” value ([3]; PREEMERGENCE) was 0 and the “Plant response rating, Cocklebur” value ([4]; POSTEMERGENCE, Rate 10 g/ha) was 9. For the same compound, the “Plant response rating (0 to 10 scale), Cocklebur” value ([4]; POSTEMERGENCE, Rate 50 g/ha) was 10, the “Plant response rating, Cocklebur” value ([4]; PREEMERGENCE, Rate 10 g/ha) was 0 and the “Plant response rating, Cocklebur” value ([4]; PREEMERGENCE, Rate 50 g/ha) was 5. The “Plant response rating, Morningglory” value ([5]; POSTEMERGENCE, Rate 10 g/ha) was 10, the “Plant response rating, Morningglory” value ([5]; POSTEMERGENCE, Rate 50 g/ha) was 10 and the “Plant response rating, Morningglory” value ([5]; PREEMERGENCE, Rate 50 g/ha) was 2. The “Plant response rating, Sorghum” value ([6]; POSTEMERGENCE, Rate 10 g/ha) was 6, the “Plant response rating, Sorghum” value ([6]; POSTEMERGENCE, Rate 50 g/ha) was 6 and the “Plant response rating, Sorghum” value ([6]; PREEMERGENCE, Rate 50 g/ha) was 2. The “Plant response rating, Soybean” value ([7]; POSTEMERGENCE, Rate 10 g/ha) was 7, the “Plant response rating, Soybean” value ([7]; POSTEMERGENCE, Rate 50 g/ha) was 8 and the “Plant response rating, Soybean” value ([7]; PREEMERGENCE, Rate 50 g/ha) was 0. The “Plant response rating, Sugar beet” value ([8]; POSTEMERGENCE, Rate 10 g/ha) was 10, the “Plant response rating, Sugar beet” value ([8]; POSTEMERGENCE, Rate 50 g/ha) was 10 and the “Plant response rating, Sugar beet” value ([8]; PREEMERGENCE, Rate 50 g/ha) was 7. The “Plant response rating, Velvetleaf” value ([9]; POSTEMERGENCE, Rate 10 g/ha) was 10, the “Plant response rating, Velvetleaf” value ([9]; POSTEMERGENCE, Rate 50 g/ha) was 10 and the “Plant response rating, Velvetleaf” value ([9]; PREEMERGENCE, Rate 50 g/ha) was 10. The “Plant response rating, Wild buckwheat” value ([10]; POSTEMERGENCE, Rate 10 g/ha) was 9, the “Plant response rating, Wild buckwheat” value ([10]; POSTEMERGENCE, Rate 50 g/ha) was 10 and the “Plant response rating, Wild buckwheat” value ([10]; PREEMERGENCE, Rate 50 g/ha) was 8. The “Plant response rating Barley Igri” value ([11]; 62 g/ha, 0 to 100 scale) was 50, the “Plant response rating (0 to 100), Barley Igri” value ([11]; Rate 1 g/ha) was 20 and the “Plant response rating (0 to 100), Barley Igri” value ([11]; Rate 4 g/ha) was 30. For the same compound, the “Plant response rating (0 to 100), Barley Igri” value ([11]; Rate 16 g/ha) was 30, the “Plant response rating, Blackgrass” value ([12]; 62 g/ha, 0 to 100 scale) was 50 and the “Plant response rating (0 to 100), Blackgrass” value ([12]; Rate 1 g/ha) was 10. For the same compound, the “Plant response rating (0 to 100), Blackgrass” value ([12]; Rate 4 g/ha) was 30, the “Plant response rating (0 to 100), Blackgrass” value ([12]; Rate 16 g/ha) was 30 and the “Plant response rating, Chickweed” value ([13]; 62 g/ha, 0 to 100 scale) was 100. The “Plant response rating (0 to 100), Chickweed” value ([13]; Rate 1 g/ha) was 30, the “Plant response rating (0 to 100), Chickweed” value ([13]; Rate 4 g/ha) was 60 and the “Plant response rating (0 to 100), Chickweed” value ([13]; Rate 16 g/ha) was 90. For the same compound, the “Plant response rating Pigweed” value ([14]; 62 g/ha, 0 to 100 scale) was 100, the “Plant response rating (0 to 100), Pigweed” value ([14]; Rate 1 g/ha) was 95 and the “Plant response rating (0 to 100), Pigweed” value ([14]; Rate 4 g/ha) was 100. The “Plant response rating (0 to 100), Pigweed” value ([14]; Rate 16 g/ha) was 100, the “Plant response rating, Rape” value ([15]; 62 g/ha, 0 to 100 scale) was 100 and the “Plant response rating (0 to 100), Rape” value ([15]; Rate 1 g/ha) was 60. For the same compound, the “Plant response rating (0 to 100), Rape” value ([15]; Rate 4 g/ha) was 85, the “Plant response rating (0 to 100), Rape” value ([15]; Rate 16 g/ha) was 95 and the “Plant response rating Ryegrass” value ([16]; 62 g/ha, 0 to 100 scale) was 40. For the same compound, the “Plant response rating (0 to 100), Ryegrass” value ([16]; Rate 1 g/ha) was 10, the “Plant response rating (0 to 100), Ryegrass” value ([16]; Rate 4 g/ha) was 20 and the “Plant response rating (0 to 100), Ryegrass” value ([16]; Rate 16 g/ha) was 30. For the same compound, the “Plant response rating, Soybean” value ([17]; 62 g/ha, 0 to 100 scale) was 90, the “Plant response rating (0 to 100), Soybean” value ([17]; Rate 1 g/ha) was 20 and the “Plant response rating (0 to 100), Soybean” value ([17]; Rate 4 g/ha) was 50. For the same compound, the “Plant response rating (0 to 100), Soybean” value ([17]; Rate 16 g/ha) was 70, the “Plant response rating (0 to 100), Umbrella sedge” value ([18]; POSTEMERGENCE section, flood test, Rate 1 g/ha) was 0 and the “Plant response rating (0 to 100), Umbrella sedge” value ([18]; POSTEMERGENCE section, flood test, Rate 4 g/ha) was 0. For the same compound, the “Plant response rating (0 to 100), Umbrella sedge” value ([18]; Rate 16 g/ha, under POSTEMERGENCE head (flood test species)) was 20 and the “Plant response rating Umbrella sedge” value ([18]; flood test species listed under POSTEMERGENCE, 62 g/ha, 0 to 100 scale) was 60.
